Test results reported in the supplement of paper PMC13380429.

Columns and labels:
Details in all cases: 72 h
[1] = tested on: Caco-2; experiment: cell viability relative to DMSO; higher = less toxic
[2] = tested on: Calu-3; experiment: as above
[3] = tested on: HepG2; experiment: as above
[4] = tested on: U2OS; experiment: as above
[5] = tested on: Vero E6; experiment: as above
[6] = tested on: Caco-2; experiment: relative viability EC50 (midpoint between 100% and the lowest measured viability); higher = less toxic
[7] = tested on: Calu-3; experiment: as above
[8] = tested on: HepG2; experiment: as above
[9] = tested on: U2OS; experiment: as above
[10] = tested on: Vero E6; experiment: as above
[11] = tested on: Caco-2; experiment: drug sensitivity score (DSS) for viability; higher = more toxic; extreme values may be limits of the assay
[12] = tested on: Calu-3; experiment: as above
[13] = tested on: HepG2; experiment: as above
[14] = tested on: U2OS; experiment: as above
[15] = tested on: Vero E6; experiment: as above

| SMILES | cell viability ([1]; 1 nM) [%] | cell viability ([1]; 10 nM) [%] | cell viability ([1]; 100 nM) [%] | cell viability ([1]; 1000 nM) [%] | cell viability ([1]; 10000 nM) [%] | cell viability ([2]; 1 nM) [%] | cell viability ([2]; 10 nM) [%] | cell viability ([2]; 100 nM) [%] | cell viability ([2]; 1000 nM) [%] | cell viability ([2]; 10000 nM) [%] | cell viability ([3]; 1 nM) [%] | cell viability ([3]; 10 nM) [%] | cell viability ([3]; 100 nM) [%] | cell viability ([3]; 1000 nM) [%] | cell viability ([3]; 10000 nM) [%] | cell viability ([4]; 1 nM) [%] | cell viability ([4]; 10 nM) [%] | cell viability ([4]; 100 nM) [%] | cell viability ([4]; 1000 nM) [%] | cell viability ([4]; 10000 nM) [%] | cell viability ([5]; 1 nM) [%] | cell viability ([5]; 10 nM) [%] | cell viability ([5]; 100 nM) [%] | cell viability ([5]; 1000 nM) [%] | cell viability ([5]; 10000 nM) [%] | relative viability EC50 [6] [µM] | relative viability EC50 [7] [µM] | relative viability EC50 [8] [µM] | relative viability EC50 [9] [µM] | relative viability EC50 [10] [µM] | drug sensitivity score [11] | drug sensitivity score [12] | drug sensitivity score [13] | drug sensitivity score [14] | drug sensitivity score [15] |
| --- | --- | --- | --- | --- | --- | --- | --- | --- | --- | --- | --- | --- | --- | --- | --- | --- | --- | --- | --- | --- | --- | --- | --- | --- | --- | --- | --- | --- | --- | --- | --- | --- | --- | --- | --- |
| c1ccc2c(-c3cnn4cc(-c5ccc(N6CCNCC6)cc5)cnc34)ccnc2c1 | 107 | 87.7 | 120 | 85.9 | 11.4 | 95.8 | 98.6 | 112 | 93.9 | 0.4 | 99.3 | 111 | 94.5 | 75.7 | -0.1 | 95.1 | 94.2 | 92.1 | 80.4 | -0.1 | 90 | 102 | 98.1 | 71.5 | -0.1 | 1.94 | 2.69 | 1.57 | 1.75 | 1.44 | 7.2 | 6.4 | 9.3 | 8.7 | 9.7 |
| CC(C)[C@@H](CS(=O)(=O)C(C)C)N1C(=O)[C@@](C)(CC(=O)O)C[C@H](c2cccc(Cl)c2)[C@H]1c1ccc(Cl)cc1 [AMG-232] | 99.6 | 97.7 | 94.2 | 91.3 | 82.9 | 99.9 | 92.4 | 93.1 | 96.7 | 93.8 | 102 | 96 | 85.9 | 33.5 | 24.4 | 98.5 | 95.5 | 97.4 | 71.2 | 65.8 | 96.8 | 99.1 | 98.4 | 58.1 | 44.6 | > 10 | > 10 | 0.266 |  | 0.568 | 0.7 | 0 | 14 | 5.2 | 8.1 |
| O=C(O)CCCCC(CCSCc1ccccc1)SCc1ccccc1 (configuration not stated) [CPI-613] |  |  |  |  |  | 103 | 104 | 97.6 | 106 | 101 | 97.5 | 102 | 97.2 | 100 | 104 | 100 | 96.7 | 95.5 | 96.4 | 112 | 98.7 | 94.8 | 97.8 | 95.7 | 100 |  | > 10 | > 10 | > 10 | > 10 |  | 0 | 0 | 0 | 0 |
| CCC[C@@H](NC(=O)N1C(=O)C(CC)(CC)[C@@H]1Oc1ccc(C(=O)N2CCN(C)CC2)cc1)c1ccc2c(c1)OCO2 [DMP-777] | 103 | 95 | 99.6 | 105 | 63.3 | 105 | 110 | 105 | 95.4 | 94.1 | 95.3 | 97.1 | 102 | 90.8 | 93 | 93.7 | 103 | 98.5 | 96.7 | 88 | 94.8 | 95.5 | 93.4 | 93.7 | 96.8 |  | > 10 | > 10 | > 10 | > 10 | 1.4 | 0 | 0 | 0.1 | 0 |
| CN(Cc1ccccc1)C(=O)[C@H](Cc1ccc2ccccc2c1)NC(=O)[C@@H]1C[C@@H](O)CN1C(=O)c1cn(C)c2ccccc12 [FK-888] | 99.7 | 105 | 99.2 | 94.7 | 69.3 | 99.3 | 94 | 90.6 | 90.5 | 86.7 | 106 | 111 | 106 | 93 | 82.3 | 103 | 98.7 | 98.5 | 103 | 87.2 | 105 | 103 | 101 | 95.2 | 99 |  | > 10 | > 10 | > 10 | > 10 | 2.2 | 0.6 | 1.1 | 0 | 0 |
| COC[C@@H](NC(C)=O)C(=O)NCc1ccccc1 [Lacosamide] | 92.8 | 90.5 | 81.7 | 98.8 | 106 | 99.1 | 99.5 | 90.6 | 114 | 110 | 98.3 | 97.5 | 98.3 | 98 | 96.1 |  |  |  |  |  | 98.5 | 97.4 | 86 | 90.6 | 104 | > 10 | > 10 | > 10 | > 10 | > 10 | 0 | 0 | 0 | 0 | 0 |
| CCCc1c(-c2ccc(O)cc2)nn(-c2ccc(O)cc2)c1-c1ccc(O)cc1 [PPT] | 102 | 100 | 104 | 91 | 75 | 94.8 | 104 | 97.4 | 106 | 116 | 100 | 99.2 | 96 | 97 | 99.8 | 104 | 102 | 101 | 98.9 | 98.9 | 99.2 | 98.9 | 98.7 | 99.6 | 96 |  | > 10 | > 10 | > 10 | > 10 | 2.1 | 0 | 0 | 0 | 0 |
| O=C(Nc1ccc(C(O)(C(F)(F)F)C(F)(F)F)cc1)c1ccc(C(F)(F)F)cc1 [SR-1078] | 104 | 99.6 | 95.4 | 99.7 | 56.4 | 109 | 105 | 118 | 91.7 | 48.6 | 114 | 99.9 | 101 | 99 | 112 | 105 | 107 | 102 | 102 | 93.2 | 100 | 100 | 99.6 | 97.6 | 95.6 |  | 1.93 | > 10 | > 10 | > 10 | 2.3 | 4.1 | 0 | 0 | 0 |
| COc1ccc(C(=O)Nc2sc3c(c2C(N)=O)CCCC3)cc1OC [TCS-359] |  |  |  |  |  | 100 | 93.4 | 101 | 91.1 | 105 | 94.4 | 102 | 89.6 | 97.6 | 94.5 | 96.8 | 99 | 102 | 98.4 | 105 | 108 | 105 | 96 | 98.3 | 98.3 |  | > 10 | > 10 | > 10 | > 10 |  | 0 | 0 | 0 | 0 |
| CC(C)(C)NC(=O)N[C@H](C(=O)N1C[C@H]2[C@@H]([C@H]1C(=O)NC(CC1CCC1)C(=O)C(N)=O)C2(C)C)C(C)(C)C (some centres not stated) [boceprevir] |  |  |  |  |  | 93.7 | 101 | 101 | 95.2 | 105 | 98.2 | 96.9 | 109 | 93.7 | 95.7 | 102 | 98.6 | 99.6 | 96.4 | 97.5 | 100 | 102 | 93.9 | 96.1 | 93.9 |  | > 10 | > 10 | > 10 | > 10 |  | 0 | 0 | 0 | 0 |
| CCCC(=O)O[C@]1(C(=O)CCl)[C@@H](C)C[C@H]2[C@@H]3CCC4=CC(=O)C=C[C@]4(C)[C@@]3(F)C(=O)C[C@@]21C [clobetasone-butyrate] | 94.7 | 103 | 94.1 | 94.3 | 74.6 | 96.1 | 112 | 97.3 | 100 | 89 | 96.2 | 104 | 97.9 | 90.3 | 88.5 | 93.1 | 96.1 | 91.8 | 95 | 87.9 | 108 | 102 | 109 | 98.5 | 93 |  | > 10 | > 10 | > 10 | > 10 | 1.7 | 0 | 0.3 | 0 | 0 |
| COc1cc2c(cc1Cc1cccc(Cl)c1F)c(=O)c(C(=O)O)cn2[C@H](CO)C(C)C [elvitegravir] | 95.3 | 91.8 | 87.6 | 99.8 | 69.3 | 99.2 | 97.4 | 102 | 96.7 | 88.1 | 117 | 106 | 109 | 104 | 91 | 93.6 | 95.7 | 92.8 | 96.3 | 80.3 | 101 | 97.9 | 98 | 93.6 | 99.5 |  | > 10 | > 10 | > 10 | > 10 | 1.4 | 0.2 | 0 | 0.5 | 0 |
